PMC8942850, “Boron clusters as broadband membrane carriers” (Nature, 2022)

Legend:
[1] = Carboxyfluorescein (CF) leakage assay, anionic vesicles; details: anionic liposomes DMPE/DPPG/CHOL 1/2/1, 13 µM phospholipids, 10 mM Tris, 140 mM NaCl, pH 7.4; CF fluorescence; Hill analysis; read-out: EC50 membrane-disrupting activity (CF leakage)
Method: A thin lipid film was prepared by evaporating a lipid solution with a stream of nitrogen and then dried in vacuo overnight. For the zwitterionic vesicles, 25 mg EYPC in 1 ml of CHCl3 was used, and for the anionic vesicles, DMPE/DPPG/CHOL (4.4/10.4/2.6 mg, 1/2/1 molar ratio) in a 1:1 mixture of CHCl3 and MeOH (1 ml) was used. […]
For leakage experiments with the lipid⊃CF vesicles, stock solutions (6 µl) were diluted with the respective buffer in a disposable plastic cuvette and gently stirred (total volume 2,000 µl, final lipid concentration 13 µM). CF fluorescence was monitored at λem = 517 nm (λex = 492 nm) as a function of time after addition of the respective activating or disrupting agent (cluster, WR7 or pyrenebutyrate) at 50 s, and Triton X-100 (24 µl 1.2% (wt/vol)) at 600 s, the latter to lyse the vesicles, for calibration. Fluorescence intensities were normalized to fractional emission intensity as I(t) = (It − I0)/(I∞ − I0), where I0 = It before disrupting agent addition and I∞ = It after Triton X-100 lysis. […]
Extended Data Fig. 1 Assays testing for stability vs leakage of the vesicles. a, Response of the HPTS/DPX assay towards a membrane-disrupting agent and chemical structures of the fluorescent dye HPTS and the quencher DPX. In this assay, large unilamellar vesicles are loaded with the HPTS/DPX probe/quencher pair, such that the fluorescence of HPTS is quenched. […]

[2] = Dynamic light scattering (vesicle size, cargo-carrier aggregates); assay type: physicochemical
Method: DLS experiments were carried out on a Malvern Instruments DTS Nano 2000 Zeta-Sizer.
Extended Data Fig. 1 Assays testing for stability vs leakage of the vesicles. a, Response of the HPTS/DPX assay towards a membrane-disrupting agent and chemical structures of the fluorescent dye HPTS and the quencher DPX. In this assay, large unilamellar vesicles are loaded with the HPTS/DPX probe/quencher pair, such that the fluorescence of HPTS is quenched. […] The cluster B12I12^2− (red trace) was identified as lytic agent because the mere addition of the cluster led to a fluorescence increase. […] In this assay, large unilamellar vesicles are loaded with CF at high concentration, such that the fluorescence is quenched. […] The cluster B12I12^2− (red trace) was identified as lytic agent because its mere addition led to a fluorescence increase. […] In b, e and f, Triton X-100 was added at t = 600 s to induce vesicle lysis and allow data normalization. Source data

HeLa cells [3] = assay: Confocal imaging of TAMRA-R8 / TAMRA-D-R8 / TAMRA uptake in living cells
Text: Representative images of two biological replicates. […] Scale bars, 50 μm.
Representative images of two biological replicates. […] Source data
(1 picture or pasted object on this page, not shown here)

HeLa cells [4] = assay: Flow cytometry of total TAMRA-R8 uptake; assay type: cell-based; details: for mean_of_medians: Extended Data Fig.5a, mean of n = 3
Method: HeLa cells were seeded at 10,000 cells per well in 96-well plates. The next day, they were incubated for 1 h with the indicated compounds diluted in HKR. Cells were subsequently washed for 5 min with HKR containing 0.1 mg ml^−1 heparin, washed again with HKR and trypsinized. Trypsin was neutralized with PBS containing 2% FBS and 5 mM EDTA. TAMRA fluorescence was excited with a green laser (532 nm) and measured on a Guava easyCyte BG HT collecting the emission at 620/52 nm (Orange-G channel) and using InCyte v.3.2 (GuavaSoft, Millipore). Data were analysed with R (v.4.0.3)[54] and the packages CytoExploreR (v.1.0.8)[56] and ggcyto (v.1.18.0)[57] Cells with typical FSC and SSC parameters were selected and the median fluorescence intensity calculated for each sample. Each condition was measured in triplicate.
Cells were incubated with 1 µM peptide, in the absence or presence of 10 µM cluster for 1 h. […] After medium removal and solubilization with DMSO, the absorbance at 570 nm was measured. Values were normalized to the untreated cell control (100%). Data are mean ± s.d. of three replicates. Source data

[5] = system: Escherichia coli Top10 strain; assay: Kanamycin A delivery in E. coli (OD570 growth); assay type: cell-based; details: incubation with the cluster alone, up to 1 mM
Method: As a proof-of-principle, we investigated its potential to reduce the minimum inhibitory concentration of kanamycin A, an aminoglycoside antibiotic. Aminoglycosides function by binding to the bacterial 30S ribosomal subunit; consequently, effective passage through the cell wall and plasma membrane is essential for aminoglycosides to reach their intracellular targets. […]
A preculture of E. coli Top10 cells was incubated overnight in LB medium with 50 µg ml^−1 streptomycin sulfate. […] After 18 h, the optical density at 570 nm, as an indicator of bacterial growth, was measured with a Tecan Infinite F200Pro microplate reader. Data were normalized for each concentration of B12Br12^2− relative to the control condition without antibiotic.
Solid points indicate mean ± s.d. of three technical replicates. […] Cross-bars indicate mean ± s.d. of three independent experiments (two with technical triplicates, one with technical duplicates); values obtained in each experiment are represented by different shapes. c, Viability of HeLa cells after incubation with different doses of MMAF in the presence of 0, 5 and 10 μM B12Br12^2−. Solid points indicate mean ± s.d. of three technical replicates. d, Corresponding IC50 values of MMAF. […] Source data

## B12Br12^2−
[1]
  EC50: 960 ± 100 µM
[2]
  DLS of combinations of cluster with the different cargos (aggregates): did not show any detectable signal of particles
HeLa cells [3]
  TAMRA-R8 fluorescence pattern in cells in presence of cluster: diffuse peptide fluorescence
HeLa cells [4]; 10 uM cluster, Tm-R8 0 uM
  mean_of_medians: 56.9232
HeLa cells [4]; 10 uM cluster, Tm-R8 1 uM
  mean_of_medians: 648.983
HeLa cells [4]; 50 uM cluster, Tm-R8 0 uM
  mean_of_medians: 50.2824
HeLa cells [4]; 50 uM cluster, Tm-R8 1 uM
  mean_of_medians: 905.363
HeLa cells [4]; HeLa, 1 µM TAMRA-R8, 10 or 50 µM cluster, 1 h
  Enhancement of total TAMRA-R8 uptake (flow cytometry): most active carrier
[5]
  Bacterial survival, cluster alone: did not affect bacterial survival
